# According to patent publication US20240270762A1, “PENICILLIN-BINDING PROTEIN INHIBITORS” (priority 2021, published 2024):
# Target: T1, PBP2 from Neisseria gonorrhoeae (FA19) (Neisseria gonorrhoeae, UniProt P08149)
# T1 construct: made in house
# Assay: Bocillin-FL fluorescence polarization competition binding, N. gonorrhoeae PBP2
# Conditions: fluorescence polarization competition binding assay using Bocillin-FL, read-out: N. gonorrhoeae PBP2 Potency
# Method in brief: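 Fluorescence polarization competition with 0.1 μM Bocillin-FL (fluorescent penicillin V) against 0.25 μM N. gonorrhoeae FA19 PBP2 in 50 mM Hepes pH 8.0, 300 mM NaCl, 10% glycerol. Boronic acid inhibitors were preincubated with PBP, then Bocillin-FL was added and FP read (490/520 nm) up to 60 min. EC50 is the concentration halving PBP-bound Bocillin-FL.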
# T1 sequence (P08149 whole entry): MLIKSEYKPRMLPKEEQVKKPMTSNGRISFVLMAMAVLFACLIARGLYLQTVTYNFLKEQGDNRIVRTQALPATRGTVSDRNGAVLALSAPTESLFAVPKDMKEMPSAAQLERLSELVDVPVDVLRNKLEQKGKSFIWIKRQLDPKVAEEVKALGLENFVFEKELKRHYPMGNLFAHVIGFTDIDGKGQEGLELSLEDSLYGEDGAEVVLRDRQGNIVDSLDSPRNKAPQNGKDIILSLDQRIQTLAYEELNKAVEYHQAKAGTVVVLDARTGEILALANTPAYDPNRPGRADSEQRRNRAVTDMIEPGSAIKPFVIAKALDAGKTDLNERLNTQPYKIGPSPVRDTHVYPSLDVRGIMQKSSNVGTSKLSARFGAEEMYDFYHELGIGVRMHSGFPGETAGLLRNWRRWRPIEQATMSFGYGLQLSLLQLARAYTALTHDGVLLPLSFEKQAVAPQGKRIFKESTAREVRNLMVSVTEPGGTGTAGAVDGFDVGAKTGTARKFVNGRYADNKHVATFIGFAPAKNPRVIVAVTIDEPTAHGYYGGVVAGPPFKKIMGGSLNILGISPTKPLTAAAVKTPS
structure (smiles),measurement,value
"CCN1CCN(C(=O)NC(C(=O)N[C@H]2Cc3cccc(C(=O)O)c3OB2O)c2ccc(P(=O)(O)O)c(F)c2O)C(=O)C1=O (stereo partly drawn) [Example 198, (3R)-3-(2-(4-ethyl-2,3-dioxopiperazine-1-carboxamido)-2-(3-fluoro-2-hydroxy-4-phosphonophenyl)acetamido)-2-hydroxy-3,4-dihydro-2H-benzo[e][1,2]oxaborinine-8-carboxylic acid]",EC50,< 10 µM
